Experiment [1] relates to human non-small cell lung cancer A549 transplanted tumor. The experiment can be described thus: Example 9: tumor growth in A549 transplanted tumor model. Type of experiment: in vivo, nude mice. The source says:
Human non-small cell lung cancer cells A549 were obtained from the Cell Bank of the Type Culture Collection Committee of Chinese Academy of Sciences (CAS, cryopreserved in liquid nitrogen in this assay). […] On D1 of the assay, the A549 cells in the logarithmic growth phase were collected, counted and resuspended in PBS, and the cell concentration was adjusted to 8×10^7 cells/mL. The cells were pipetted with a pipette to disperse them evenly, and the cells were put into a 50-mL centrifuge tube, which was placed in an ice box. A 1-mL syringe was used to draw the cell suspension, which was injected subcutaneously into the axilla of the front right limb of a nude mouse. Each animal was inoculated with 100 μL (8×10^6 cells/mouse) to establish an A549 transplanted tumor model in nude mice. After the inoculation, the animal status and tumor growth were regularly observed. On D18, the tumor diameter was measured using an electronic vernier caliper. The data were input into an Excel spreadsheet to calculate the tumor volume. Tumor-bearing mice in good health and with similar tumor volumes (101 to 156 mm^3) were selected and divided into groups using randomized block method. After the start of the assay, the tumor diameter was measured regularly, the tumor volume was calculated, and the animal body weight was also weighed and recorded. On the last day of the assay, CO2 inhalation anesthesia was used on the animals 1 hour after the administration (R01). Blood was collected through the heart, and a part of the whole blood was added with EDTA-K2 for anticoagulation. The plasma was separated by centrifugation at 4° C. and 1500 g for 10 minutes. The plasma was collected, and stored in a −40° C. to −20° C. freezer (if necessary, it can be used for the determination of the plasma drug concentration). No anticoagulant was added to the other part of the whole blood, and the serum was separated by centrifugation after the blood coagulated, which was used for the detection of blood urea nitrogen. After the blood collection, the tumor tissue was collected, weighed and photographed. Then, the tumor was divided into two parts, quickly cryopreserved by liquid nitrogen, and transferred to a −90° C. to −60° C. freezer for storage. […] [table]

Experiment [2] deals with NCI-H460 cells. The experiment can be described thus: Colony formation assay, NCI-H460. Format: cell-based, human. Conditions: 50 μM and 150 μM vs 0 μM, about 2 weeks. The method, then:
(1) The cell status was observed under a microscope. Cells in the logarithmic growth phase were selected and digested to make a cell suspension. 20 μl of the cell suspension was taken with a pipette and added to the CountStar disposable cell counting plate for cell counting, and the counting results were recorded.
(2) A 6-well culture plate was used for colony formation assay. Approximately 1,000 cells were inoculated into each well, and the complete culture medium was added to make up the volume to 2.5 ml per well. The cells were shaked in a figure-8 pattern to disperse the cells evenly. The next day, the compound of formula (I) at different concentrations (0 μM, 50 μM, and 150 μM) were added to the corresponding wells according to the assay plan, and incubated in an incubator at 37° C. with 5% CO2 for about 2 weeks. The culture was terminated when visible colonies appeared.
(3) The culture plate was taken out, and the old culture medium was discarded. The cells were gently washed twice with PBS.
(4) 500 μl of 4% paraformaldehyde fixative was added to each well to fix the cells at room temperature for 15 minutes, and then the fixative was discarded.
(5) 500 μl of 0.1% crystal violet solution was added to each well, and cells were stained at room temperature for at least 15 minutes. The crystal violet was discarded, and the staining solution was slowly washed away with running water. […]

[3] abbreviates: D21, DDP 5/7/7/7 mg/kg i.p. QW×4.
The mark [4] stands for this setting: D25, DDP 5/7/7/7 mg/kg i.p. QW×4.
Where [5] appears, read: D28, DDP 5/7/7/7 mg/kg i.p. QW×4.
Where [6] appears, read: D32, DDP 5/7/7/7 mg/kg i.p. QW×4.
Setting [7] is: D35, DDP 5/7/7/7 mg/kg i.p. QW×4.
Setting [8] is: D39, DDP 5/7/7/7 mg/kg i.p. QW×4.
Where [9] appears, read: D42, DDP 5/7/7/7 mg/kg i.p. QW×4.
[10] abbreviates: D46, DDP 5/7/7/7 mg/kg i.p. QW×4.

Experimental findings from US20250270170A1, “2,3-DIMETHOXY-5-METHYL-1,4-BENZOQUINONE ALKYL ALCOHOL DERIVATIVE AND USE THEREOF” (BEIJING ANJIANXI BIO-MEDICAL TECHNOLOGY CO., LTD., priority 2021, published 2025) are described below.

Marks after values point to notes of the source that are not given here.

For the compound `N.N.[Cl][Pt][Cl]` [DDP, cisplatin], the Mean tumor volume in experiment [1] (D18, DDP 4 mg/kg i.p. QW×4) is reported as 127 ± 6 mm^3; in experiment [1] (D18, DDP 5/7/7/7 mg/kg i.p. QW×4), 130 ± 5 mm^3; in experiment [1] (D21, DDP 4 mg/kg i.p. QW×4), 210 ± 10 mm^3; in experiment [1] (setting [3]), 208 ± 11 mm^3; in experiment [1] (D25, DDP 4 mg/kg i.p. QW×4), 297 ± 20** mm^3; in experiment [1] (setting [4]) it was 308 ± 23** mm^3. The Mean tumor volume in experiment [1] (D28, DDP 4 mg/kg i.p. QW×4) is 418 ± 28** mm^3; in experiment [1] (setting [5]) it was 428 ± 30** mm^3; in experiment [1] (D32, DDP 4 mg/kg i.p. QW×4) it was 561 ± 35** mm^3; in experiment [1] (setting [6]), 562 ± 41** mm^3; in experiment [1] (D35, DDP 4 mg/kg i.p. QW×4), 670 ± 56** mm^3; in experiment [1] (setting [7]) it was 696 ± 52* mm^3. In addition, the Mean tumor volume in experiment [1] (D39, DDP 4 mg/kg i.p. QW×4) is 914 ± 89** mm^3; in experiment [1] (setting [8]), 892 ± 86** mm^3; in experiment [1] (D42, DDP 4 mg/kg i.p. QW×4) it was 1110 ± 119 mm^3; in experiment [1] (setting [9]), 1099 ± 85* mm^3; in experiment [1] (D46, DDP 4 mg/kg i.p. QW×4), 1333 ± 176 mm^3; in experiment [1] (setting [10]), 1236 ± 32* mm^3. Also, the “tumor growth inhibition rate (TGI)” value in experiment [1] (D21, DDP 4 mg/kg i.p. QW×4) was “(−1.0%)”; in experiment [1] (setting [3]), “(4.7%)”; in experiment [1] (D25, DDP 4 mg/kg i.p. QW×4), “(37%)”; in experiment [1] (setting [4]) it was “(34%)”; in experiment [1] (D28, DDP 4 mg/kg i.p. QW×4) it was “(29%)”; in experiment [1] (setting [5]) it was “(27%)”. Besides, the “tumor growth inhibition rate (TGI)” value is “(27%)” in experiment [1] (D32, DDP 4 mg/kg i.p. QW×4); “(28%)” in experiment [1] (setting [6]); “(26%)” in experiment [1] (D35, DDP 4 mg/kg i.p. QW×4); “(22%)” in experiment [1] (setting [7]); “(30%)” in experiment [1] (D39, DDP 4 mg/kg i.p. QW×4); “(33%)” in experiment [1] (setting [8]). Also, the “tumor growth inhibition rate (TGI)” value in experiment [1] (D42, DDP 4 mg/kg i.p. QW×4) was “(23%)”; in experiment [1] (setting [9]), “(24%)”; in experiment [1] (D46, DDP 4 mg/kg i.p. QW×4), “(20%)”; in experiment [1] (setting [10]), “(27%)”. Moreover, the “effect on growth of the A549 transplanted tumor (summary)” value in experiment [1] (DDP 4 or 5/7/7/7 mg/kg QW, R01 formulation 18 or 36 mg/kg BID, combinations 18+5/7/7/7 and 36+4) is given as “no significant effect”.
For `COC1=C(OC)C(=O)C(CCCCCCCCCCOC(=O)Cc2c(C)n(C(=O)c3ccc(Cl)cc3)c3ccc(OC)cc23)=C(C)C1=O` [compound of formula (I)], the colony-forming ability result in experiment [2] is reported as “decreased significantly”.
